One test concerns the target HDAC2 (Homo sapiens, UniProt Q92769). Nature of the test: In vitro HDAC inhibition assay, HDAC2. It is filed as biochemical. The settings on record: NI = No inhibition at a concentration of 50 pM (footnote b); read-out: HDAC isoform IC50, HDAC2.
For a further test, the target named is HDAC3/NcoR2 complex (Homo sapiens, UniProt O15379). Nature of the test: In vitro HDAC inhibition assay, HDAC3. It is filed as biochemical. The settings on record: NI = No inhibition at a concentration of 50 pM (footnote b); read-out: HDAC isoform IC50, HDAC3.
Sequence of HDAC3/NcoR2 complex (O15379 whole entry, canonical isoform): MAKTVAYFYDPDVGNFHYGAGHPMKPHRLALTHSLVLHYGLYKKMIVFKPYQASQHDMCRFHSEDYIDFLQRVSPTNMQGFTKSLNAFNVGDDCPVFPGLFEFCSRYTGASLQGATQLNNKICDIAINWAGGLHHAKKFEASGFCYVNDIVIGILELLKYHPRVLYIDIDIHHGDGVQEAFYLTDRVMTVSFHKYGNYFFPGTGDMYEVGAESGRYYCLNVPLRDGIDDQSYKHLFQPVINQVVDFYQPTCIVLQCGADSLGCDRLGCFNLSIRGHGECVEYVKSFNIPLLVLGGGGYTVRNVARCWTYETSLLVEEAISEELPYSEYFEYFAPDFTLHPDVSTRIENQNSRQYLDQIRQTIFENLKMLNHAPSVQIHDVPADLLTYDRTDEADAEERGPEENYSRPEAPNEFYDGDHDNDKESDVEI
Sequence of HDAC3/NcoR2 complex (Q9Y618 395-489 partner limits assumed): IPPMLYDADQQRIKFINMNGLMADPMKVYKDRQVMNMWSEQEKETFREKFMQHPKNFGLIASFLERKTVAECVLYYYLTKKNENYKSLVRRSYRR
In a further test the target is T1, Human HDAC6 (Homo sapiens, UniProt Q9UBN7).
T1 construct: Full length with N-terminal GST tag, MW=159 kDa; GST (N); host or cells: baculovirus expression system, Sf9 cells
T1 sequence (Q9UBN7 1-1215): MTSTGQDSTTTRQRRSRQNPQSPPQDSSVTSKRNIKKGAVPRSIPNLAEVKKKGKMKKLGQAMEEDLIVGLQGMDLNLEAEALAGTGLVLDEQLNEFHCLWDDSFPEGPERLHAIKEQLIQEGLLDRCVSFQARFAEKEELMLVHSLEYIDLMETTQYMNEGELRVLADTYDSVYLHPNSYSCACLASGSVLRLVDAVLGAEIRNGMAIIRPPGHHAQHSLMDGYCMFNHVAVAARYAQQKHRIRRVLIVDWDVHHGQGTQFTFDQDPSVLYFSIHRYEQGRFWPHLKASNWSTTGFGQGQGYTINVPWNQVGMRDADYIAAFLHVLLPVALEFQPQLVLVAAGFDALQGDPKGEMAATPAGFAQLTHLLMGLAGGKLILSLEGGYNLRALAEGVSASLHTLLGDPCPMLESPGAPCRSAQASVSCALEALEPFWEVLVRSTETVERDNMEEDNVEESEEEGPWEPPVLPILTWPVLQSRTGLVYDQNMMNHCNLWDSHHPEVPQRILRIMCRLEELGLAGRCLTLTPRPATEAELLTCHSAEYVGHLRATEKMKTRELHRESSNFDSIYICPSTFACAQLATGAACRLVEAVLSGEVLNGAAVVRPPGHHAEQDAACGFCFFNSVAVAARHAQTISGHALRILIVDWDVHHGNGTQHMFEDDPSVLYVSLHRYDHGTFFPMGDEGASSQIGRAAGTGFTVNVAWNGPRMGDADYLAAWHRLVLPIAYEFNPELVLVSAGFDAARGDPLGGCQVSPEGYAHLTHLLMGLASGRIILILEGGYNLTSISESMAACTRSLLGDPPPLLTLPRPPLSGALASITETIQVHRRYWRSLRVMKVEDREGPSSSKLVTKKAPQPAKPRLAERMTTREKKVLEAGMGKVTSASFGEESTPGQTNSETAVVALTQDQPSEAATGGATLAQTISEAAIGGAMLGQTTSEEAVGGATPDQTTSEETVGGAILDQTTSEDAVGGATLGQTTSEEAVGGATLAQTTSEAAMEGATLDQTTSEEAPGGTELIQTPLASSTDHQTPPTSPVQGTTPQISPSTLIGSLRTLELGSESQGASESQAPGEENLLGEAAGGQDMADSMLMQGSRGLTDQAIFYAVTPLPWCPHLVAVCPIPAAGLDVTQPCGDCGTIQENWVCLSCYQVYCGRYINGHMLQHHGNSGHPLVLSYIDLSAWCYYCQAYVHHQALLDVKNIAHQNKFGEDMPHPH
Nature of the test: In vitro HDAC inhibition assay, HDAC6. It is filed as biochemical. The settings on record: read-out: HDAC isoform IC50, HDAC6.

For a further test, the target named is T2, HDAC10 (Homo sapiens, UniProt Q969S8).
T2 sequence (Q969S8 1-669): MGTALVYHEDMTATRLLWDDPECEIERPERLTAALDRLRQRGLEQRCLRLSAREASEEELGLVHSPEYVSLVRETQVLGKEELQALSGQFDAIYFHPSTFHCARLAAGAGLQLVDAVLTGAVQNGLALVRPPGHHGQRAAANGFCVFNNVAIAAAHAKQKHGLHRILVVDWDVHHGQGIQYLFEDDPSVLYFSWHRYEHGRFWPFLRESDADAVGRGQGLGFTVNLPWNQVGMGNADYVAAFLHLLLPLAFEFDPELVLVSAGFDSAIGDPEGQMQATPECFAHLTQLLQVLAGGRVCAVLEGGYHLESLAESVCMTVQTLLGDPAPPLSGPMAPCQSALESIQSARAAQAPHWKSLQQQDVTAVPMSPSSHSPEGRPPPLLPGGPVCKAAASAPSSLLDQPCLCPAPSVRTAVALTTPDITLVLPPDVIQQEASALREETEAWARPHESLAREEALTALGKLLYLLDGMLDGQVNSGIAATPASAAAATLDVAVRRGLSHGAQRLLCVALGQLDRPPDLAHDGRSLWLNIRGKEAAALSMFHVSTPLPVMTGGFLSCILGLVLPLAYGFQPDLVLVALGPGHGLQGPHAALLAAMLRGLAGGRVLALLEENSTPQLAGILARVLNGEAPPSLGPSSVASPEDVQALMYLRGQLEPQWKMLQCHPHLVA
Nature of the test: In vitro HDAC inhibition assay, HDAC10. The settings on record: NI = No inhibition at a concentration of 50 pM (footnote b); read-out: HDAC isoform IC50, HDAC10. It is filed as biochemical.

Another test has as its system BxPC-3. Nature of the test: In vitro growth inhibition of pancreatic cancer cell lines (Table 3), BxPC-3. It is filed as cell-based. The note with it: Homo sapiens, 72 hours post-treatment, cell viability. The protocol:
In Vitro growth inhibition of pancreatic cancer cell lines. Four of the present HDACIs were analyzed in the [3-(4,5-dimethylthiazol-2-yl)]-2,5-diphenyltetrazolium bromide (MTT) assay in four pancreatic cancer cell lines (Table 3).

Another test deals with BxPC3. As to the kind of experiment: In vitro growth inhibition (GI), MTS cell proliferation assay (Table 5), BxPC3. It is filed as cell-based. The settings on record: Homo sapiens, BXPC-3, 72 hours post-treatment.
The subject of another test is L3.6pl. Nature of the test: In vitro growth inhibition (GI), MTS cell proliferation assay (Table 5), L3.6pl. It is filed as cell-based. The settings on record: Homo sapiens, 72 hours post-treatment.
The subject of test [1] is L3.6pl pancreatic cancer cells. As to the kind of experiment: Apoptosis by Hoechst staining and PARP cleavage. The note with it: 10 μM, 24 hours after the initiation of treatment. It is filed as cell-based. The protocol: FIG. 3 contains photographs and Western immunoblots showing that HDAC inhibitors of present invention induce apoptosis on L3.6p1 pancreatic cancer cells. L3.6p1 pancreatic cancer cells were treated with 10 μM of compound 1, 2 or 4 for 24 hrs as indicated. Cells were collected and processed to Hoechst staining (upper panel) and cell lysates were prepared for Western immunoblotting (lower panel). 50 μg of proteins were separated by SDS-PAGE, transferred to PVDF membrane, and immunoblotted as indicated.

For the next test, the target named is Human HDAC1 (Homo sapiens, UniProt Q13547). As to the kind of experiment: In vitro HDAC inhibition assay, HDAC1. The settings on record: read-out: HDAC isoform IC50, HDAC1; NI = No inhibition at a concentration of 50 pM (footnote b).
Sequence of Human HDAC1 (Q13547 whole entry, canonical isoform): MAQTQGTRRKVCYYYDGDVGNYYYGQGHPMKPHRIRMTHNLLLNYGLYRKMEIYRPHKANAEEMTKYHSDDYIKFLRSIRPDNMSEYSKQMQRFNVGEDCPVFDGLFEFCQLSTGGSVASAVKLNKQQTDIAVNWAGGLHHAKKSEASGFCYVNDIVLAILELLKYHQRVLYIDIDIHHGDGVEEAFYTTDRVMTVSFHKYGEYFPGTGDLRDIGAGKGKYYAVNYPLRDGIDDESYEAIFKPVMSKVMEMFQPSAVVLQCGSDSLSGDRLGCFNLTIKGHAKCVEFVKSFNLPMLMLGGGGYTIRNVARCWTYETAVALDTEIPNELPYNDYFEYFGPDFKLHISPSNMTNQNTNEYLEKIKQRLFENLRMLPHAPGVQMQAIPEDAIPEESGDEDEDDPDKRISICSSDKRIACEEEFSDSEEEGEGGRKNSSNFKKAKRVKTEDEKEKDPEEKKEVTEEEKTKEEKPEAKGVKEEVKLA
In test [2] the test system is PANC1 cells. Nature of the test: Scratch-wound cell migration assay. Also noted: key to Inhibition of cell migration, 24 h / Inhibition of cell migration, 48 h: Level of inhibition (high to low): +++, ++ or +; Level of inhibition (high to low): +++, ++ or +; Level of inhibition (high to low): +++, ++ or +; no inhibition: −. It is filed as cell-based. The settings on record: for Inhibition of cell migration, 24 h: PANC1, 24 h post wounding; for Inhibition of cell migration, 48 h: PANC1, 48 h post wounding. On the procedure:
FIG. 2 contains photographs of PANC1 cells treated with present compounds 9 and 6 taken 24 and 48 hours (post wounding) after a scratch was made through a confluent layer of cells; and
PANC1 Cell migration and effect on T and NK Cells. The effect of HDAC6 inhibition on cell migration and cellular cytotoxicity was evaluated. […] Thus, these HDAC6-selective inhibitors could function well to block metastasis. However, in contrast to the effect observed on cell migration, none of the compounds tested affected CD8+ T cell or natural killer (NK) cell-mediated cytotoxicity, despite the ability of the compounds to substantially increase the levels of acetyl-tubulin in these cell lines.

For another test, the system named is acetylated alpha-tubulin. Nature of the test: Accumulation of acetylated alpha-tubulin in pancreatic cancer cells. It is filed as cell-based. The settings on record: FIG. 1A. The source says: Cell cycle and inhibition of alpha-tubulin deacetylation.
Test [3] has as its system PANC1 cells. Nature of the test: Cell cycle analysis. It is filed as cell-based. The settings on record: FIG. 1B, accumulation in the G2/M phase. The source says: This finding is consistent with cell cycle data, which indicate that treatment of pancreatic cancer cells with a present HDACIs results in an accumulation of cells in the G2/M phase of the cell cycle.

Sequence of HDAC2 (Q92769 whole entry, canonical isoform): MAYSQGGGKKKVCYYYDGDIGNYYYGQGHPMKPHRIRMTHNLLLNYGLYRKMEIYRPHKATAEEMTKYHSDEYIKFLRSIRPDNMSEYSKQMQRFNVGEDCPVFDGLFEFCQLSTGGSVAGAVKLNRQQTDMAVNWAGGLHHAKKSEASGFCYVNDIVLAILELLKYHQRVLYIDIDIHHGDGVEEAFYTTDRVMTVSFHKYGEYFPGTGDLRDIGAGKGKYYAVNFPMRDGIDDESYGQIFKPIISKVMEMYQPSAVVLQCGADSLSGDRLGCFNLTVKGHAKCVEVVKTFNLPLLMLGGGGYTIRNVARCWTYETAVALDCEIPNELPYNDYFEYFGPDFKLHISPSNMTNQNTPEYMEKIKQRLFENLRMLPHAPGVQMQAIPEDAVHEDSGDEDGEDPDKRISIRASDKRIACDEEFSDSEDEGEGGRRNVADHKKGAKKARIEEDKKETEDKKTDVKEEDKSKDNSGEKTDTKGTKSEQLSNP

As for `O=C(CCc1cc(C(=O)NO)no1)Nc1nc(-c2ccccc2)cs1` [Compound 1, 5-[2-(4-Phenyl-thiazol-2-ylcarbamoyl)-ethyl]-isoxazole-3-carboxylic acid hydroxyl amide], the IC50 came to 1140 nM at HDAC2; 320 nM on HDAC3/NcoR2 complex; 31 nM on Human HDAC6; 407 nM at HDAC10; 1000 nM in the test with BxPC-3; 307 nM on Human HDAC1. For the same molecule, the GI50 in the test on BxPC3 was 1500 nM; in the test with L3.6pl it was 1300 nM. In test [1], the “Induction of apoptosis (Hoechst staining and PARP cleavage)” value is recorded as “effectively induced apoptosis”.
Regarding `Nc1cccc(-c2cc(C(=O)NCCc3cc(C(=O)NO)no3)no2)c1` [Compound 9, 5-(2-{[5-(3-Amino-phenyl)-isoxazole-3-carbonyl]-amino}-ethyl)-isoxazole-3-carboxylic acid hydroxyamide], the concentration for half-maximal inhibition (IC50) at HDAC2 came out at 2360 nM; on HDAC3/NcoR2 complex, 1770 nM; on Human HDAC6 it was 16.8 nM; at HDAC10, 5290 nM; on Human HDAC1 it was 6680 nM. Besides, the GI50 in the test with BxPC3 is 12000 nM; in the test on L3.6pl it was 3300 nM. Also, the “Inhibition of cell migration, 24 h” value in the test on PANC1 cells [2] is on record as “+”. Besides, the “Inhibition of cell migration, 48 h” value in the test on PANC1 cells [2] was “−”. Also, in the test with PANC1 cells [2] (compared to diluent-treated control cells), the “Effect on PANC1 cell migration” value is “partial effect”. For the same molecule, the “Accumulation of acetylated alpha-tubulin” value in the test with acetylated alpha-tubulin is listed as “accumulation of acetylated alpha-tubulin”.
Take `O=C(Nc1cccc(-c2cc(C(=O)NCCc3cc(C(=O)NO)no3)no2)c1)c1ccccc1` [Compound 12]: the IC50 stood at 10400 nM on HDAC2; 7050 nM on HDAC3/NcoR2 complex; 4.4 nM at Human HDAC6; 4630 nM on HDAC10; 2930 nM on Human HDAC1. Further, the GI50 in the test on BxPC3 and with L3.6pl was more than 50000 nM in each case. Moreover, the “Inhibition of cell migration, 24 h” value in the test with PANC1 cells [2] was “−”. In addition, the “Inhibition of cell migration, 48 h” value with PANC1 cells [2] is recorded as “−”. For the same molecule, the “Accumulation of acetylated alpha-tubulin” value in the test with acetylated alpha-tubulin is “accumulation of acetylated alpha-tubulin”.
Take `CC(C)(C)OC(=O)Nc1cccc(-c2cc(C(=O)NCc3ccc(C(=O)NO)cc3)no2)c1` [Compound 14, {3-[3-(4-Hydroxycarbamoyl-benzylcarbamoyl)-isoxazol-5-yl]-phenyl}-carbamic acid tert-butyl ester]: the IC50 at HDAC2 was 1380 nM; on HDAC3/NcoR2 complex, 789 nM; on Human HDAC6, 0.64 nM; on HDAC10, 2730 nM; at Human HDAC1, 444 nM. In addition, the results for the GI50 in the test on BxPC3 and with L3.6pl were 7800 nM and more than 50000 nM, respectively. In addition, the “Inhibition of cell migration, 24 h” value in the test on PANC1 cells [2] is on record as “−”. In the test with PANC1 cells [2], the “Inhibition of cell migration, 48 h” value was “−”. Besides, in the test with acetylated alpha-tubulin, the “Accumulation of acetylated alpha-tubulin” value was “accumulation of acetylated alpha-tubulin”. Also, in the test on PANC1 cells [3], the Cell cycle arrest result was “cell cycle arrest”.
For the molecule `CC(C)(C)OC(=O)Nc1ccc(-c2cc(C(=O)NCc3ccc(C(=O)NO)cc3)no2)cc1` [Compound 15, {4-[3-(4-Hydroxycarbamoyl-benzylcarbamoyl)-isoxazol-5-yl]-phenyl}-carbamic acid tert-butyl ester], the half-inhibitory concentration (IC50) on HDAC2 was 1900 nM; on HDAC3/NcoR2 complex, 135 nM; at Human HDAC6, 0.33 nM; on HDAC10, 3160 nM; on Human HDAC1, 436 nM. Besides, the values for the GI50 with BxPC3 and in the test on L3.6pl were 8100 nM and 2000 nM, respectively. The “Accumulation of acetylated alpha-tubulin” value with acetylated alpha-tubulin was “accumulation of acetylated alpha-tubulin”. The Cell cycle arrest entry in the test on PANC1 cells [3] is given as “cell cycle arrest”.
Regarding `O=C(NO)c1ccc(CNC(=O)c2cc(Cn3c4ccccc4c4ccccc43)on2)cc1` [Compound 18, 5-Carbazol-9-ylmethyl-isoxazole-3-carboxylic acid 4-hydroxycarbamoyl-benzylamide], the IC50 on HDAC2 was found to be 1370 nM; at HDAC3/NcoR2 complex, 479 nM; at Human HDAC6, 0.6 nM; at HDAC10, 22200 nM; at Human HDAC1, 495 nM. Also, the values for the GI50 in the test with BxPC3 and in the test on L3.6pl were 2400 nM and 1300 nM, respectively. In addition, the “Inhibition of cell migration, 24 h” value in the test on PANC1 cells [2] is “+”. For the same molecule, in the test on PANC1 cells [2], the “Inhibition of cell migration, 48 h” value is “−”. In addition, the “Accumulation of acetylated alpha-tubulin” value with acetylated alpha-tubulin was “accumulation of acetylated alpha-tubulin”. In addition, the Cell cycle arrest entry with PANC1 cells [3] was “cell cycle arrest”.

The values are drawn from US11739064B2, “HDAC inhibitors and therapeutic methods using the same” (THE BOARD OF TRUSTEES OF THE UNIVERSITY OF ILLINOIS, priority 2015, dated 2023).
